This note sets out measurements from patent publication US8012980B2, “Isoquinolinone derivatives” (AstraZeneca AB, priority 2008, dated 2011).

SMILES strings stand for the structures.

The experiment deals with T1, human active recombinant p38 (p38α) (Homo sapiens, UniProt Q16539).
T1 construct: 6His
T1 sequence (Q16539 whole entry): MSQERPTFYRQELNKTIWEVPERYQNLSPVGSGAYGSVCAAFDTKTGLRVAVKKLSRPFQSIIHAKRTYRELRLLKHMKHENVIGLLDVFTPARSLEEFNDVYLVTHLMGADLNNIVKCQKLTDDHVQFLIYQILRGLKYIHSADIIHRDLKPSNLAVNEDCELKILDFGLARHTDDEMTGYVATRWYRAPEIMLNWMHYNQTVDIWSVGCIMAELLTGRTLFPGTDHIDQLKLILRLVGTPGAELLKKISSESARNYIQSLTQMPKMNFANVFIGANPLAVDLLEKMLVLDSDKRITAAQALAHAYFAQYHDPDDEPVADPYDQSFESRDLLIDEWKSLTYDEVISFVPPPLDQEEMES
Briefly: p38 Alpha Enzyme Assay (AlphaScreen, biotinylated-ATF2 substrate). It is filed as biochemical. Particulars: means of replicate determinations; pre-incubated for 4 hours at 37° C.; SD of assay between 0.2 and 0.3 log units; read-out: p38α inhibition Mean pIC50 (converted). As for the experimental part:
The ability of the compounds of formula (I) to inhibit p38 kinase may be determined using the following biological assay:
Enzyme assays were performed in polypropylene 96 well plates. The following solutions were added to each well; 10 μL of compound dilutions in assay buffer (20 mM HEPES pH 7.4, containing 20 mM magnesium acetate, 0.005% (w/v) Tween-20, 10 mM DTT) containing 1% (v/v) DMSO or assay buffer containing 1% (v/v) DMSO alone, 70 μL of assay buffer containing 36 nM substrate (biotinylated-ATF2) and 10 μL of an appropriate dilution of human active recombinant p38-6H is tagged. Depending on batch of p38, an appropriate dilution was typically a 5 nM solution to give a final enzyme concentration of 0.5 nM. At this stage, background control wells also received 50 μL of AlphaScreen quench buffer (10 mM HEPES pH 7.4 containing 100 mM EDTA, 0.2% (w/v) bovine serum albumin). The plate was covered, pre-incubated for 4 hours at 37° C. and the enzyme reaction initiated by addition of 10 μL 1 mM ATP. After incubation for a further 45 minutes at 37° C., the reaction was stopped by addition of 50 μL quench reagent and 50 μL of the quenched reaction mixture transferred to an opaque, white 96-well plate. Detection reagent, 25 μL of 10 mM HEPES pH 7.4 containing 100 mM EDTA, 0.2% (w/v) bovine serum albumin, 0.3 nM anti phosphoATF2 antibody and 25 μg/mL of AlphaScreen protein A acceptor and donor beads' (PerkinElmer Inc.), was added to all wells in a darkened room, the plate sealed and left in the dark for at least 5 hours before AlphaScreen readings were taken using a Perkin Elmer EnVision reader. Total, uninhibited activity was determined from assays performed in each assay plate. The mean control in the absence of p38 activity was subtracted from each well. Data were expressed as percent inhibition of total activity using equation 1. Percent Inhibition=100*(1−Test/Control) Eq.1 Where . . . Test=p38 kinase activity in the presence of compound Control=p38 kinase activity in the absence of compound.
pIC50 is defined as the logarithm of the reciprocal of the concentration of compound required for 50% reduction in total p38 kinase activity.
The standard deviation of the p38 enzyme inhibition assay is between 0.2 and 0.3 log units.
As to `Cc1c(F)cc(C(=O)NC2CC2)cc1-c1ccc2c(=O)n(CC(C)(C)CO)cc(C(C)N3CCN[C@@H](CO)C3)c2c1` (stereo partly drawn) [Example 44, N-Cyclopropyl-3-fluoro-5-[2-(3-hydroxy-2,2-dimethylpropyl)-4-{1-[(3R)-3-(hydroxymethyl)piperazin-1-yl]ethyl}-1-oxo-1,2-dihydroisoquinolin-6-yl]-4-methylbenzamide], the IC50 was 1.26 nM.

As to `Cc1c(F)cc(C(=O)NC2CC2)cc1-c1ccc2c(=O)n(CC(C)(C)CO)cc(C(C)N3CCN[C@@H](CO)C3)c2c1` (stereo partly drawn) [Example 45, N-Cyclopropyl-3-fluoro-5-[2-(3-hydroxy-2,2-dimethylpropyl)-4-{1-[(3R)-3-(hydroxymethyl)piperazin-1-yl]ethyl}-1-oxo-1,2-dihydroisoquinolin-6-yl]-4-methylbenzamide], the IC50 is 0.126 nM.

With `Cc1c(F)cc(C(=O)NC2CC2)cc1-c1ccc2c(=O)n(CC(C)(C)CO)cc(S(=O)(=O)N3CCCNCC3)c2c1` [Example 46, N-Cyclopropyl-3-[4-(1,4-diazepan-1-ylsulfonyl)-2-(3-hydroxy-2,2-dimethylpropyl)-1-oxo-1,2-dihydroisoquinolin-6-yl]-5-fluoro-4-methylbenzamide], the IC50 is 0.158 nM.

Take `Cc1c(F)cc(C(=O)NC2CC2)cc1-c1ccc2c(=O)n(CC3CC3)cc(S(=O)(=O)N3CCNCC3)c2c1` [Example 47, N-Cyclopropyl-3-[2-(cyclopropylmethyl)-1-oxo-4-(piperazin-1-ylsulfonyl)-1,2-dihydroisoquinolin-6-yl]-5-fluoro-4-methylbenzamide]: the IC50 was 0.251 nM.

As for `Cc1c(F)cc(C(=O)NC2CC2)cc1-c1ccc2c(=O)n(CC3CC3)cc(S(=O)(=O)N3CCN(C)CC3)c2c1` [Example 48, N-Cyclopropyl-3-{2-(cyclopropylmethyl)-4-[(4-methylpiperazin-1-yl)sulfonyl]-1-oxo-1,2-dihydroisoquinolin-6-yl}-5-fluoro-4-methylbenzamide], the IC50 is 0.398 nM.

Consider `Cc1c(F)cc(C(=O)NC2CC2)cc1-c1ccc2c(=O)n(CC(C)(C)CO)cc(S(=O)(=O)N3CCN[C@@H](CO)C3)c2c1` [Example 49, N-Cyclopropyl-3-fluoro-5-[2-(3-hydroxy-2,2-dimethylpropyl)-4-{[(3R)-3-(hydroxymethyl)piperazin-1-yl]sulfonyl}-1-oxo-1,2-dihydroisoquinolin-6-yl]-4-methylbenzamide], for which the IC50 is 0.501 nM.

For `Cc1c(F)cc(C(=O)NC2CC2)cc1-c1ccc2c(=O)n(CC3CC3)cc(S(=O)(=O)N3CCC(N)CC3)c2c1` [Example 50, 3-{4-[(4-Aminopiperidin-1-yl)sulfonyl]-2-(cyclopropylmethyl)-1-oxo-1,2-dihydroisoquinolin-6-yl}-N-cyclopropyl-5-fluoro-4-methylbenzamide], the IC50 was 0.2 nM.

As for `Cc1c(F)cc(C(=O)NC2CC2)cc1-c1ccc2c(=O)n(CC3CC3)cc(S(=O)(=O)N3CCCNCC3)c2c1` [Example 51, N-cyclopropyl-3-[2-(cyclopropylmethyl)-4-(1,4-diazepan-1-ylsulfonyl)-1-oxo-1,2-dihydroisoquinolin-6-yl]-5-fluoro-4-methylbenzamide], the IC50 was 0.1 nM.

Turning to `CNC1CCN(S(=O)(=O)c2cn(CC3CC3)c(=O)c3ccc(-c4cc(C(=O)NC5CC5)cc(F)c4C)cc23)CC1` [Example 52, N-cyclopropyl-3-[2-(cyclopropylmethyl)-4-{[4-(methylamino)piperidin-1-yl]sulfonyl}-1-oxo-1,2-dihydroisoquinolin-6-yl]-5-fluoro-4-methylbenzamide], the IC50 was 0.2 nM.

Consider `Cc1c(F)cc(C(=O)NC2CC2)cc1-c1ccc2c(=O)n(CC(C)(C)CO)cc(S(=O)(=O)N3CC[C@H](N)C3)c2c1` [Example 53, 3-[4-{[(3S)-3-Aminopyrrolidin-1-yl]sulfonyl}-2-(3-hydroxy-2,2-dimethylpropyl)-1-oxo-1,2-dihydroisoquinolin-6-yl]-N-cyclopropyl-5-fluoro-4-methylbenzamide], for which the IC50 is 0.398 nM.

Consider `Cc1c(F)cc(C(=O)NC2CC2)cc1-c1ccc2c(=O)n(CC(C)(C)CO)cc(S(=O)(=O)N3CC[C@@H](N)C3)c2c1` [Example 54, 3-[4-{[(3R)-3-Aminopyrrolidin-1-yl]sulfonyl}-2-(3-hydroxy-2,2-dimethylpropyl)-1-oxo-1,2-dihydroisoquinolin-6-yl]-N-cyclopropyl-5-fluoro-4-methylbenzamide], for which the IC50 was 0.251 nM.

Regarding `Cc1c(F)cc(C(=O)NC2CC2)cc1-c1ccc2c(=O)n(CC(C)(C)CO)cc(S(=O)(=O)N3CCC[C@@H]3CN)c2c1` [Example 55, 3-[4-{[(2R)-2-(aminomethyl)pyrrolidin-1-yl]sulfonyl}-2-(3-hydroxy-2,2-dimethylpropyl)-1-oxo-1,2-dihydroisoquinolin-6-yl]-N-cyclopropyl-5-fluoro-4-methylbenzamide], the IC50 is 2.51 nM.

With `Cc1c(F)cc(C(=O)NC2CC2)cc1-c1ccc2c(=O)n(CC(C)(C)CO)cc(S(=O)(=O)NCCN(C)C)c2c1` [Example 56, N-cyclopropyl-3-[4-{[2-(dimethylamino)ethyl]sulfamoyl}-2-(3-hydroxy-2,2-dimethylpropyl)-1-oxo-1,2-dihydroisoquinolin-6-yl]-5-fluoro-4-methylbenzamide], the IC50 is 0.794 nM.

Turning to `Cc1c(F)cc(C(=O)NC2CC2)cc1-c1ccc2c(=O)n(CC3(CO)CC3)cc(S(=O)(=O)N3CCCNCC3)c2c1` [Example 57], the IC50 was 0.158 nM.

`Cc1c(F)cc(C(=O)NC2CC2)cc1-c1ccc2c(=O)n(CC(C)(C)CO)cc(SC3CCNCC3)c2c1` [Example 58, N-Cyclopropyl-3-fluoro-5-[2-(3-hydroxy-2,2-dimethylpropyl)-1-oxo-4-(piperidin-4-ylsulfanyl)-1,2-dihydroisoquinolin-6-yl]-4-methylbenzamide]: the IC50 was 0.316 nM.

As for `Cc1c(F)cc(C(=O)NC2CC2)cc1-c1ccc2c(=O)n(CC(C)(C)CO)cc([S+]([O-])C3CCNCC3)c2c1` (centres unmarked) [Example 59, N-Cyclopropyl-3-fluoro-5-[2-(3-hydroxy-2,2-dimethylpropyl)-1-oxo-4-(piperidin-4-ylsulfinyl)-1,2-dihydroisoquinolin-6-yl]-4-methylbenzamide], the IC50 was 0.501 nM.

Take `Cc1c(F)cc(C(=O)NC2CC2)cc1-c1ccc2c(=O)n(CC(C)(C)CO)cc(S(=O)(=O)C3CCNCC3)c2c1` [Example 60, N-Cyclopropyl-3-fluoro-5-[2-(3-hydroxy-2,2-dimethylpropyl)-1-oxo-4-(piperidin-4-ylsulfonyl)-1,2-dihydroisoquinolin-6-yl]-4-methylbenzamide]: the IC50 was 0.398 nM.

On to `Cc1c(F)cc(C(=O)NC2CC2)cc1-c1ccc2c(=O)n(CC3CC3)cc(SC3CCNCC3)c2c1` [Example 61, N-Cyclopropyl-3-[2-(cyclopropylmethyl)-1-oxo-4-(piperidin-4-ylsulfanyl)-1,2-dihydroisoquinolin-6-yl]-5-fluoro-4-methylbenzamide], for which the IC50 is 0.1 nM.

Turning to `Cc1c(F)cc(C(=O)NC2CC2)cc1-c1ccc2c(=O)n(CC3CC3)cc(S(=O)(=O)C3CCNCC3)c2c1` [Example 62, N-Cyclopropyl-3-[2-(cyclopropylmethyl)-1-oxo-4-(piperidin-4-ylsulfonyl)-1,2-dihydroisoquinolin-6-yl]-5-fluoro-4-methylbenzamide], the IC50 is 0.2 nM.

Turning to `Cc1c(F)cc(C(=O)NC2CC2)cc1-c1ccc2c(=O)n(CC3(CO)CC3)cc(SC[C@@H]3CCCNC3)c2c1` [Example 63], the IC50 is 0.398 nM.

As for `Cc1c(F)cc(C(=O)NC2CC2)cc1-c1ccc2c(=O)n(CC3(CO)CC3)cc(SC3CCNCC3)c2c1` [Example 64, N-Cyclopropyl-3-fluoro-5-[2-{[1-(hydroxymethyl)cyclopropyl]methyl}-1-oxo-4-(piperidin-4-ylsulfanyl)-1,2-dihydroisoquinolin-6-yl]-4-methylbenzamide], the IC50 is 0.1 nM.

In the case of `Cc1c(F)cc(C(=O)NC2CC2)cc1-c1ccc2c(=O)n(CC(C)(C)CO)cc(S[C@@H]3CCNC3)c2c1` [Example 65, N-Cyclopropyl-3-fluoro-5-{2-(3-hydroxy-2,2-dimethylpropyl)-1-oxo-4-[(3R)-pyrrolidin-3-ylsulfanyl]-1,2-dihydroisoquinolin-6-yl}-4-methylbenzamide], the IC50 was under 0.0631 nM.

For `Cc1c(F)cc(C(=O)NC2CC2)cc1-c1ccc2c(=O)n(CC(C)(CO)CO)cc(SC3CCNCC3)c2c1` [Example 66, N-Cyclopropyl-3-fluoro-5-{2-[3-hydroxy-2-(hydroxymethyl)-2-methylpropyl]-1-oxo-4-(piperidin-4-ylsulfanyl)-1,2-dihydroisoquinolin-6-yl}-4-methylbenzamide], the IC50 was 0.2 nM.
